According to PMC3079562 (Nature chemical biology, 2011):

Target: T1, NosL (Streptomyces actuosus, UniProt C6FX51)
T1 sequence (C6FX51 1-400): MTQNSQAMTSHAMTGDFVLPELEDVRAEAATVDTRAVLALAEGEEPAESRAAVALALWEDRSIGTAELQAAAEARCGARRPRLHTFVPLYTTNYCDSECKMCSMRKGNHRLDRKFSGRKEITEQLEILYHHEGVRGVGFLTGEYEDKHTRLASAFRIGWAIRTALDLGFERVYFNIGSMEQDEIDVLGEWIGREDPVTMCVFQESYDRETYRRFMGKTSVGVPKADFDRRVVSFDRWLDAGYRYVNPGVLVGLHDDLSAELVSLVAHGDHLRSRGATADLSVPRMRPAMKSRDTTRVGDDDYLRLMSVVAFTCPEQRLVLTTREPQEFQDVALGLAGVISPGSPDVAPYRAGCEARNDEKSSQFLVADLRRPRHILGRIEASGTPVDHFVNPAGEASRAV
Conditions: with L-Trp; otherwise same

C[S+](CC[C@H](N)C(=O)O)C[C@H]1O[C@@H](n2cnc3c(N)ncnc32)[C@H](O)[C@@H]1O (stereo partly shown) [S-AdoMet]
HPLC-MS of product 5'-deoxyadenosine: S-AdoMet consumption was independent of L-Trp, but significantly enhanced by adding L-Trp
